Assays:
Assay in all cases: relative viability (nuclei count vs DMSO), 5 days (fraction); higher = more cells survive
[1] = compound: CN[C@@H]1C[C@H]2O[C@@](C)([C@@H]1OC)n1c3ccccc3c3c4c(c5c6ccccc6n2c5c31)C(=O)NC4 [Staurosporine] + COc1cc2c(Oc3ccc(NC(=O)C4(C(=O)Nc5ccc(F)cc5)CC4)cc3F)ccnc2cc1OCCCN1CCOCC1 [Foretinib] (partner 0.25 µM)
Procedure, shortened: (§1)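 Medians of duplicate plates are given as relative viability. That measure is the nuclei count in treated wells divided by the count in vehicle wells. Counts were taken on 4× images of lung cancer cell lines in 1536-well plates, 5 days after pin-tool dosing the day after seeding with one drug alone or a fixed anchor-drug dose plus five library-drug doses (not always all listed) in √10 steps.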

[2] = compound: CN[C@@H]1C[C@H]2O[C@@](C)([C@@H]1OC)n1c3ccccc3c3c4c(c5c6ccccc6n2c5c31)C(=O)NC4 [Staurosporine] + CC1(C)CCC(c2ccc(Cl)cc2)=C(CN2CCN(c3ccc(C(=O)NS(=O)(=O)c4ccc(N[C@H](CCN5CCOCC5)CSc5ccccc5)c(S(=O)(=O)C(F)(F)F)c4)cc3)CC2)C1 [Navitoclax] (partner 0.5 µM)
Procedure, shortened: as §1

[3] = compound: O=c1[nH]cc(F)c(=O)[nH]1 [5-Fluorouracil] + CS(=O)(=O)CCNCc1ccc(-c2ccc3ncnc(Nc4ccc(OCc5cccc(F)c5)c(Cl)c4)c3c2)o1 [Lapatinib] (partner 2 µM)
Procedure, shortened: as §1

[4] = compound: CC1=C(CC(=O)O)c2cc(F)ccc2/C1=C\c1ccc([S+](C)[O-])cc1 [Sulindac] + COc1cc2c(Oc3ccc(NC(=O)C4(C(=O)Nc5ccc(F)cc5)CC4)cc3F)ccnc2cc1OCCCN1CCOCC1 [Foretinib] (partner 0.25 µM)
Procedure, shortened: as §1

UMC-11
relative viability ([1]; first compound 0.005 µM): 1.02
relative viability ([1]; first compound 0.01581 µM): 0.574
relative viability ([1]; first compound 0.05 µM): 0.326
relative viability ([1]; first compound 0.1581 µM): 0.116
relative viability ([1]; first compound 0.5 µM): 0.077
relative viability ([2]; first compound 0.005 µM): 0.265
relative viability ([2]; first compound 0.01581 µM): 0.158
relative viability ([2]; first compound 0.05 µM): 0.141
relative viability ([2]; first compound 0.1581 µM): 0.106
relative viability ([2]; first compound 0.5 µM): 0.103
relative viability ([3]; first compound 0.02 µM): 0.905
relative viability ([3]; first compound 0.2 µM): 0.746
relative viability ([3]; first compound 0.6325 µM): 0.434
relative viability ([3]; first compound 2 µM): 0.443
relative viability ([4]; first compound 0.08 µM): 1.33
relative viability ([4]; first compound 0.253 µM): 1.12
relative viability ([4]; first compound 0.8 µM): 0.739
relative viability ([4]; first compound 2.53 µM): 0.986
relative viability ([4]; first compound 8 µM): 1.12

— the supplement of paper PMC10307832
